{"source": "patent US20250288561A1", "about": "“NEZULCITINIB FOR DELIVERY BY NEBULIZED ORAL INHALATION” (THERAVANCE BIOPHARMA R&D IP, LLC, priority 2022, published 2025)", "key": {"JAK3": {"target": "T1, JAK3 (Homo sapiens, UniProt P52333)", "T1 sequence (P52333 1-1124)": "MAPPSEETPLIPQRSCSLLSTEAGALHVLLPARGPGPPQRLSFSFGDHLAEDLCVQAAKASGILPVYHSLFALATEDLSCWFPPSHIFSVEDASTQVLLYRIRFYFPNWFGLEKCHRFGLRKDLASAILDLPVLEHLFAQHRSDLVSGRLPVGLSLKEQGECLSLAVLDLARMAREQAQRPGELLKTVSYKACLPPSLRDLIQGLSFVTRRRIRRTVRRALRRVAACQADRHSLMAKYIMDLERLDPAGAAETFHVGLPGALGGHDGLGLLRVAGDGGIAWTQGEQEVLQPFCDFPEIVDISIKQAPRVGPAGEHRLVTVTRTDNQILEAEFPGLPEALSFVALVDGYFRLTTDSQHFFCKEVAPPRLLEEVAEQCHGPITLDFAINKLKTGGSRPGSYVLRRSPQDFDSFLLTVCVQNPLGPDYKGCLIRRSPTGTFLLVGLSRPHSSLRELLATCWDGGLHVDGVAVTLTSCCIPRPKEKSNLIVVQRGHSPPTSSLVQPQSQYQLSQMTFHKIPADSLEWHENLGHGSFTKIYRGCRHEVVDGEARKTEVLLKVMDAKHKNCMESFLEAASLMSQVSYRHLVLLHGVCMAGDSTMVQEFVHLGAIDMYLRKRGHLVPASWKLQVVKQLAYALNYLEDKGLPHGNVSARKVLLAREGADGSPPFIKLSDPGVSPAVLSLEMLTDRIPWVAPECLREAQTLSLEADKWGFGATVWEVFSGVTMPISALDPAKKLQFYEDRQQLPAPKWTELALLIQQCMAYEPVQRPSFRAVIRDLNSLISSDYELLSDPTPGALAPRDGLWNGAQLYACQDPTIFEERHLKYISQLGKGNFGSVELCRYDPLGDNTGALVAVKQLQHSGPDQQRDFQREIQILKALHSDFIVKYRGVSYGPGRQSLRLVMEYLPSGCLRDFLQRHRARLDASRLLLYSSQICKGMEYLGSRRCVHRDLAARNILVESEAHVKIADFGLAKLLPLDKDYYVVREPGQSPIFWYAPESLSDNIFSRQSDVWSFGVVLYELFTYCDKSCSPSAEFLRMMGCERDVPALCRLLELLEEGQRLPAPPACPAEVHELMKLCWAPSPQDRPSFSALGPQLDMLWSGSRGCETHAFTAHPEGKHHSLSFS", "test": "JAK enzyme inhibition", "type": "biochemical"}}}
{"smiles": "CCc1cc(O)ccc1-c1ccc2c(-c3nc4c([nH]3)CN(C(C)C)[C@H](C(=O)N3CC(N(C)C)C3)C4)n[nH]c2c1", "note": "[Compound 1, (S)-(3-(dimethylamino)azetidin-1-yl)(2-(6-(2-ethyl-4-hydroxyphenyl)-1H-indazol-3-yl)-5-isopropyl-4,5,6,7-tetrahydro-3H-imidazo[4,5-c]pyridin-6-yl)methanone]", "values": [{"measurement": "plasma concentrations with low-flow nasal oxygen therapy compared to healthy subjects without supplemental oxygen therapy", "setting": "human, in vivo", "result": "similar"}, {"measurement": "plasma exposure", "setting": "phase 2", "result": "low"}, {"measurement": "inhibition of JAK3", "setting": "JAK3", "result": "potent inhibitor"}]}
